Molecules are shown by their SMILES. A value given as a limit tells only on which side of the number the result lay.

As a reminder, the melting point is the temperature of the solid-liquid transition. In turn, `CCOC(=O)c1c(CCc2ccc(OC)cc2)nc2c(c1-c1ccc(C(=O)NCc3ccco3)cc1)C(=O)N1CCC[C@H]21` registered a melting point of 136 °C. `NC(Cc1cccc2ccccc12)(C(=O)O)C1CC(C(=O)O)C1` (stereo not given): the melting point lay within 189 to 191 °C.

The compound `COC(=O)C(Br)c1ccc(OCCOc2ccc(Cl)cc2)cc1` (stereo not given) came in with a melting point of 76 to 80 °C.

As for `O=c1c2cccc(O)c2nc(-c2ccc(O)cc2)n1-c1ccc(OCCCl)cc1`, the melting point was 274 to 276 °C. To `OC[C@@H]1CC=CC[C@@H]1CO` belongs 33 to 35 °C; to `COc1cc(Cl)cc(C)c1Nc1nc2c(Cl)ccc(C(O)(C(C)(C)C)C(C)(C)C)c2n1C`, 246 to 248 °C; to `Cc1ccc2oc(=O)n(-c3ccnc(NC(=O)NCc4ccccn4)c3)c2c1`, 205 to 206 °C. The compound `COc1ccc2nc(COc3ccc(CC(SC)C(N)=O)cc3)n(C)c2c1` (stereo not given) gave a melting point of 188 to 190 °C. `CCOC(=O)CN(Cc1ccccc1)c1ncnc2c(N3CCOCC3)nc(N3CCC(N(C)C)CC3)nc12` displayed a melting point of 112 to 115 °C. To `Cc1noc([C@@H]2CSCc3c(O)cc(O)c(C)c3C(=O)OC[C@@H](O)C(=O)N2)n1` belongs 265 to 267 °C; to `CCOC(=O)C(C)(C)CCCCOc1cc(C)c(N=Nc2ccc([N+](=O)[O-])cc2)c(C)c1`, 89 to 90 °C. As for `NC(=O)c1c(N)sc2c1CCC1(C2)OCCO1`, the melting point was in the range of 157 to 158 °C. To `CCCCc1c2c(nc3c1CCCC3)CCCC2` belongs 35 to 37 °C; to `CC(=O)OC1CSC(Oc2cccc(-c3ccc(F)nc3)c2)C(OC(C)=O)C1OC(C)=O` (stereo not given), 115 °C.

Take `O=C1c2ccccc2C(=O)N1Cc1cc(I)ccc1Cl`: the melting point is 134 to 136 °C. Turning to `CC(C)n1cc(C=O)c(-c2ccc([N+](=O)[O-])o2)n1`, the melting point fell in the range of 168 to 170 °C. In the case of `Cc1ccc(C)c(C(=O)c2c(S(C)(=O)=O)nn(-c3c(Cl)cc(C(F)(F)F)cc3Cl)c2N)c1`, the melting point was 194 °C. Compound `CCN(CC)CCOC(=O)N1CCC(NC(=O)c2ccccc2)CC1` yielded a melting point of 78 to 82 °C. Regarding `O=C(NCCN1CCN(C(c2ccc(F)cc2)c2ccccn2)CC1)C1CSC(c2cccnc2)N1` (stereo not given), the melting point was 144 to 146 °C. Regarding `CC(=O)c1cccc(Nc2c3ccccc3nc3occc23)c1`, the melting point fell in the range of 158 to 159 °C.

Compound `CCOC(=O)C1=C(N)NC(N)=C(C(=O)OCC)C1c1cccc(C(F)(F)F)c1` returned a melting point of 170 °C. To `CC(=CC(=O)Nc1ccccc1OCCCC(=O)O)c1ccc2c(ccn2C(c2ccccc2)c2ccccc2)c1` belongs 158 to 162 °C; to `COc1ccc(CC(=S)N2CCOCC2)cc1`, 145 to 147 °C; to `CCCC(CCC)c1ccc(OCc2ccc(-c3csc(COc4cncc(C(=O)O)c4)c3)cc2)cc1`, 157 to 159 °C. For `CCc1nc(Br)c(Br)[nH]1`, the melting point lay within 149 to 150 °C. As to `O=C(Nc1nc2ccc(C(F)(F)F)cc2s1)c1c(F)cccc1Cl`, the melting point fell in the range of 265 to 270 °C. Under `O=C(Nc1cccc(CN2C(=O)[C@H]3CCC[C@H]3Nc3ccccc32)c1)OCc1ccccc1` (relative stereo) stands 179 to 180 °C; under `O=[N+]([O-])c1ccc2ncnc(Nc3cccc(Br)c3)c2c1`, 267 to 270 °C; under `COC(=O)c1nc2cc(I)ccc2c(O)c1C(=O)OC`, 243 to 244 °C. Under `O=C(CC1(C=NO)OCCO1)OCc1ccccc1` stands 52 °C; under `CN(C)CCn1c(=O)sc2ccc(Cl)cc21`, 62.5 to 65.5 °C; under `COc1ccc(Cn2c(N)c(Br)c(=O)[nH]c2=O)cc1`, 247 °C.

`CCOC(=O)c1ccccc1-c1ccc2nc[nH]c(=O)c2c1` had a melting point of 151 to 158 °C. Compound `Cc1ccc(C(=O)Nc2c(NC(=O)CN3CCN(c4ncccn4)CC3)ccc3c2C(=O)c2ccccc2C3=O)cc1` displayed a melting point of 267 to 268 °C.

`CC(=O)SC(CC(=O)c1ccc(C)cc1)C(=O)O` (stereo not given) had a melting point of 81 to 85 °C. To `CCCCc1oc2ccccc2c1C(=O)N(Cc1ccccc1)Cc1ccc(-c2ccc(OC)c(Br)c2)cc1` belongs 145 to 148 °C. To `CCCCOc1ccc2c(C(F)(F)F)c(OC)ccc2c1C(=O)N(C)CC(=O)O` belongs 152 to 155 °C. With `CCN(c1ccc(C(C)=O)cc1)c1nc(=O)c2cccnc2s1`, the melting point was determined as 204 °C. Under `CNC(=O)c1cc(-c2ccc(OC)cc2)nn(CC=Cc2ccccc2)c1=O` stands 160 to 161 °C; under `CCc1sc2ncnc(N)c2c1-c1ccc(NS(=O)(=O)c2ccccc2)cc1`, 209 to 210 °C; under `COc1cc(C)ccc1Oc1ccc(Br)cc1O`, 75 to 76 °C.

Consider `CCOC(=O)c1oc2cccc(COC)c2c1C`, for which the melting point fell in the range of 45 to 47 °C.

`COc1ccc(-c2cc3ccccc3s2)cc1`: the melting point lay within 188 to 190 °C. Under `O=C(NCCCO)c1c([N+](=O)[O-])ccc(N(CCBr)CCBr)c1[N+](=O)[O-]` stands 115 to 117 °C.

As for `Cc1ccc(S(=O)(=O)N2CCC[C@H]2C(=O)N[C@@H](Cc2ccc(OCC(=O)NC(C)(C)C)cc2)C(=O)O)cc1`, the melting point is 88 to 89 °C. Under `Nc1ccc(-c2ccc(N)cc2C(=O)OCCCCCCOc2ccc(-c3ccccc3)cc2)c(C(=O)OCCCCCCOc2ccc(-c3ccccc3)cc2)c1` stands 122 to 124 °C. Compound `CCOC(=O)c1cccc(-c2ccc(Cl)c3cc(Cc4ccc(F)c(F)c4)sc23)c1` returned a melting point of 124 to 125 °C.

As to `CSc1cc(C(C)(C)C)c(O)c(C(=O)Nc2ccc(S(=O)(=O)C(F)(F)F)cc2Cl)c1C`, the melting point was determined as 156 °C. Compound `COc1cc(Br)c(C(C)=O)cc1O` displayed a melting point of 110 to 111 °C. `CCOC(=O)c1ncn2c1CN(Cc1ccc(OC)cc1OC)C(=O)c1c(Cl)cccc1-2` registered a melting point of 129 to 130 °C. Under `O=c1ccoc(C(O)c2ccc(F)cc2)c1O` (stereo not given) stands 154 to 156 °C. Under `COC(=O)c1cc(OCc2ccccc2)c(OCc2ccccc2)c(OCc2ccccc2)c1` stands 102 to 103 °C. Turning to `C/C(=C(\C#N)C(=S)/N=C/N(C)C)N1CCCN(c2ccc(C(F)(F)F)cc2)CC1`, the melting point was 251 to 253 °C. To `CNC(=O)c1cnc(-c2ccccc2)c(-c2ccc(=O)n(C(C)C)n2)c1` belongs 212 to 213 °C; to `c1ccc(CNn2cccc2)cc1`, 39 to 41 °C.

`O=C(O)c1cccc2sc3ccccc3c(=O)c12`: the melting point lay in the range of 269 to 270 °C. As to `C=CCC(=O)c1cnn(-c2ccccn2)c1S(N)(=O)=O`, the melting point was 140 to 142 °C. Under `CCC1C(=O)CCC(Cc2ccc(OC)cc2)(Cc2ccc(OC)cc2)C1C` (stereo not given) stands 106 to 107 °C.

Compound `COC(=O)C(Cc1ccc([N+](=O)[O-])cc1)NC(=O)NCc1cccc(Oc2ccccc2)c1` (single isomer, unassigned; (+)) yielded a melting point of 112 to 114 °C.

`CSC(=O)Cn1c(=O)sc2ccccc21` returned a melting point of 146 to 147 °C.

`CC(=O)NC1CCc2c(n(C)c3ccccc23)C1` (stereo not given) yielded a melting point of 171 to 172 °C. The compound `C=C(C)C(=O)Nc1cccc(C(=O)NC2=NN(c3c(Cl)cc(Cl)cc3Cl)C(=O)C2c2cc[nH]n2)c1` (stereo not given) gave a melting point of 227 to 230 °C. In turn, `CCOC(=O)c1cccc(Nc2ncc3cc(-c4c(Cl)cccc4Cl)c(=O)n(C)c3n2)c1` gave a melting point of 238 to 240 °C. As for `N#CN=C(Cc1ccc2c(c1)Nc1nccnc1S2)NCCCC(=O)O`, the melting point lay in the range of 217 to 218 °C.

As for `Cc1cnc2c(S(=O)(=O)N[C@@H](CCCc3cn(C(c4ccccc4)(c4ccccc4)c4ccccc4)cn3)C(=O)OC(C)(C)C)cccc2c1`, the melting point is 56 °C. `Cc1cc(-c2ccccc2)nc(-c2cccc([N+](=O)[O-])c2)c1C(=O)NCCN1CCOCC1` returned a melting point of 147 to 148 °C. Under `Cc1cc(-n2ccc(O)cc2=O)sc1C(=O)NCc1cccc(F)c1` stands 140 to 142 °C; under `CCC(=O)c1cc(C(=O)O)c(=O)[nH]c1CC`, 180 to 182 °C; under `CN(CCOCCO)S(=O)(=O)c1ccc(NC=C2C(=O)Nc3ccc4ncsc4c32)cc1`, 165 °C. Consider `CC(C)(C)OC(=O)c1ncn2c1[C@@H]1CCCN1C(=O)c1c(I)cccc1-2`, for which the melting point lay in the range of 241 to 242 °C.

Compound `O=S(=O)(CCCCl)Nc1ccc(Oc2cccc3cccnc23)cc1` showed a melting point of 161 to 162 °C. Under `O=C(NO)c1ccc2c(c1)CCN(C(=O)NCCc1c[nH]c3ccccc13)C2` stands 173 to 176 °C; under `OC1(c2ccccc2)CCN(CCN2CCN(Cc3cc(C(F)(F)F)cc(C(F)(F)F)c3)CC2c2ccc(Cl)c(Cl)c2)CC1` (stereo not given), 71 to 72 °C; under `Cc1cc2c(cc1-n1cccc1)OC(=O)C2C` (stereo not given), 61 to 63 °C. Under `CCn1c2c(c(=O)c3cc(C(C)C)ccc31)Cc1cc(C)sc1-2` stands 168 to 169 °C. `CC(C)n1nc(-c2sc(Nc3cccnc3)nc2-c2ccccc2)ccc1=O`: the melting point was in the range of 226 to 228 °C. `CCCCc1cn(Cc2ccc(-c3ccccc3C(=O)O)cc2)c2cccc(SC)c2c1=O` had a melting point of 155 °C. The compound `CCCc1cc(C(=O)OCC)ccc1O` returned a melting point of 78 to 79 °C.

Consider `O=S(=O)(Nc1cccc(CCOCc2cccc(-c3ccccc3)n2)c1)C(F)(F)F`, for which the melting point was 75 to 77 °C. As for `COCCc1ccc(OCC(O)C(C)(C)[N+](=O)[O-])cc1` (stereo not given), the melting point fell in the range of 92 to 94 °C. To `O=C(O)c1cccc(Nc2nccc(-c3cccnc3)n2)c1` belongs 291 to 295 °C; to `CC1CN(c2nnc(N3CCOC(C)C3)c3cc(-c4ccccc4)ncc23)CCO1` (stereo not given), 75 to 81 °C; to `CCn1c(C)c(C(=O)c2ccccc2)c(N=Cc2ccccc2)c1-c1ccccc1`, 147 to 148 °C. To `CCCCc1ccc(CC(=O)c2ccccc2)cc1` belongs 53 to 55 °C. To `O=C(Nc1cc(C(=O)O)cc(C(=O)O)c1)Oc1ccc([N+](=O)[O-])cc1` belongs more than 300 °C.

(Values after a melting point compilation (Tetko et al.; mined from patent text by program, amines drawn as free bases though some values may be those of a salt).)
